# According to patent US8546320B2, “Hsp9O-targeted anti-cancer chimeric peptide” (Kyoto University, priority 2008, dated 2013):
# Where a SMILES comes first, the peptide text is derived from it.
# Legend:
# U937 = assay: cells; type: cell-based, human; conditions: for Anti-cancer activity (% relative to wild-type peptide) / Decrease in cell survival rate (% relative to wild-type peptide): wild-type peptide = 100%
# Description: A total of 3×10^3 cells per well were inoculated onto a 96 well plate, and incubated in a medium containing 10% FBS with 100 μl of a peptide diluted stepwise at 37° C. for 48 to 72 hours. The survival rate of the cells was measured by using WST-8 solution (Cell Count Reagent SF; Nacalai Tesque, Inc.).
# cancer cells = assay: Cell viability assay, summary statements on cancer cells; type: cell-based; conditions: single mutation in TPR or Antp region of Antp-TPR
# Caki-1 = type: cell-based, human; conditions: Caki-1; for Anti-cancer activity (% relative to wild-type peptide) / Decrease in cell survival rate (% relative to wild-type peptide): wild-type peptide = 100%
Compound,Cell Survival Rate (%) (U937),killing effect compared with the wild-type peptide (U937; U937),Anti-cancer activity (% relative to wild-type peptide) (U937; U937),Decrease in cell survival rate (% relative to wild-type peptide) (U937; U937),effect compared with the wild-type protein (summary of mutations) (cancer cells),Anti-cancer activity (% relative to wild-type peptide) (Caki-1),Decrease in cell survival rate (% relative to wild-type peptide) (Caki-1),killing effect compared with the wild-type peptide (Caki-1)
CC[C@H](C)[C@H](NC(=O)[C@H](CCCNC(=N)N)NC(=O)[C@H](C)NC(=O)[C@H](Cc1ccc(O)cc1)NC(=O)CNC(=O)[C@H](CCCCN)NC(=O)[C@H](CCCCN)NC(=O)[C@H](CCCCN)NC(=O)[C@H](Cc1c[nH]c2ccccc12)NC(=O)[C@H](CCCCN)NC(=O)[C@H](CCSC)NC(=O)[C@H](CCCNC(=N)N)NC(=O)[C@H](CCCNC(=N)N)NC(=O)[C@H](CC(N)=O)NC(=O)[C@H](CCC(N)=O)NC(=O)[C@H](Cc1ccccc1)NC(=O)[C@H](Cc1c[nH]c2ccccc12)NC(=O)[C@@H](NC(=O)[C@H](CCCCN)NC(=O)[C@@H](NC(=O)[C@H](CCC(N)=O)NC(=O)[C@@H](N)CCCNC(=N)N)[C@@H](C)CC)[C@@H](C)CC)C(=O)NCC(=O)N[C@@H](CC(N)=O)C(=O)N[C@@H](CO)C(=O)N[C@@H](Cc1ccc(O)cc1)C(=O)N[C@@H](Cc1ccccc1)C(=O)N[C@@H](CCCCN)C(=O)O [Antp-A2G] (H-RQIKIWFQNRRMKWKKKGYARIGNSYFK-OH; N-terminus and C-terminus assumed),13.90%,increase in effect,112.17%,167.23%,effect higher than the wild-type protein,100.70%,105.96%,–
CC[C@H](C)[C@H](NC(=O)[C@H](CCCCN)NC(=O)[C@@H](NC(=O)[C@H](CCC(N)=O)NC(=O)[C@@H](N)CCCNC(=N)N)[C@@H](C)CC)C(=O)N[C@@H](Cc1c[nH]c2ccccc12)C(=O)N[C@@H](Cc1ccccc1)C(=O)N[C@@H](CCC(N)=O)C(=O)N[C@@H](CC(N)=O)C(=O)N[C@@H](CCCNC(=N)N)C(=O)N[C@@H](CCCNC(=N)N)C(=O)N[C@@H](CCSC)C(=O)N[C@@H](CCCCN)C(=O)N[C@@H](Cc1c[nH]c2ccccc12)C(=O)N[C@@H](CCCCN)C(=O)N[C@@H](CCCCN)C(=O)N[C@@H](CCCCN)C(=O)N[C@@H](C)C(=O)N[C@@H](Cc1ccc(O)cc1)C(=O)N[C@@H](C)C(=O)N[C@@H](CCCNC(=N)N)C(=O)N[C@@H](CCCNC(=N)N)C(=O)NCC(=O)N[C@@H](CC(N)=O)C(=O)N[C@@H](CO)C(=O)N[C@@H](Cc1ccc(O)cc1)C(=O)N[C@@H](Cc1ccccc1)C(=O)N[C@@H](CCCCN)C(=O)O [Antp-I6R] (H-RQIKIWFQNRRMKWKKKAYARRGNSYFK-OH; N-terminus and C-terminus assumed),91.60%,–,10.92%,25.36%,effective but with a lower effect than the wild-type protein,1.95%,10.87%,–
CC[C@H](C)[C@H](NC(=O)[C@H](CCCNC(=N)N)NC(=O)[C@H](C)NC(=O)[C@H](Cc1ccc(O)cc1)NC(=O)[C@H](C)NC(=O)[C@H](CCCCN)NC(=O)[C@H](CCCCN)NC(=O)[C@H](CCCCN)NC(=O)[C@H](Cc1c[nH]c2ccccc12)NC(=O)[C@H](CCCCN)NC(=O)[C@H](CCSC)NC(=O)[C@H](CCCNC(=N)N)NC(=O)[C@H](CCCNC(=N)N)NC(=O)[C@H](CCC(N)=O)NC(=O)[C@H](CCC(N)=O)NC(=O)[C@H](Cc1ccccc1)NC(=O)[C@H](Cc1c[nH]c2ccccc12)NC(=O)[C@@H](NC(=O)[C@H](CCCCN)NC(=O)[C@@H](NC(=O)[C@H](CCC(N)=O)NC(=O)[C@@H](N)CCCNC(=N)N)[C@@H](C)CC)[C@@H](C)CC)C(=O)NCC(=O)N[C@@H](CC(N)=O)C(=O)N[C@@H](CO)C(=O)N[C@@H](Cc1ccc(O)cc1)C(=O)N[C@@H](Cc1ccccc1)C(=O)N[C@@H](CCCCN)C(=O)O [Antp N9Q-TPR] (H-RQIKIWFQQRRMKWKKKAYARIGNSYFK-OH; N-terminus and C-terminus assumed),–,–,–,–,effect higher than the wild-type protein,110.59%,881.03%,stronger than that of the wild-type peptide
CC[C@H](C)[C@H](NC(=O)[C@H](CCCNC(=N)N)NC(=O)[C@H](C)NC(=O)[C@H](Cc1ccc(O)cc1)NC(=O)[C@H](C)NC(=O)[C@H](CCCCN)NC(=O)[C@H](CCCCN)NC(=O)[C@H](CCCCN)NC(=O)[C@H](Cc1c[nH]c2ccccc12)NC(=O)[C@H](CCCCN)NC(=O)[C@H](CCSC)NC(=O)[C@H](CCCNC(=N)N)NC(=O)[C@H](CCCNC(=N)N)NC(=O)[C@H](CC(N)=O)NC(=O)[C@H](CCC(N)=O)NC(=O)[C@H](Cc1ccccc1)NC(=O)[C@H](Cc1c[nH]c2ccccc12)NC(=O)[C@@H](NC(=O)[C@H](CCCCN)NC(=O)[C@@H](NC(=O)[C@H](CC(N)=O)NC(=O)[C@@H](N)CCCNC(=N)N)[C@@H](C)CC)[C@@H](C)CC)C(=O)NCC(=O)N[C@@H](CC(N)=O)C(=O)N[C@@H](CO)C(=O)N[C@@H](Cc1ccc(O)cc1)C(=O)N[C@@H](Cc1ccccc1)C(=O)N[C@@H](CCCCN)C(=O)O [Antp Q2N-TPR] (H-RNIKIWFQNRRMKWKKKAYARIGNSYFK-OH; N-terminus and C-terminus assumed),–,–,–,–,effect similar to that of the wild-type protein,88.97%,52.02%,–
CC[C@H](C)[C@H](NC(=O)[C@H](CCCNC(=N)N)NC(=O)[C@H](C)NC(=O)[C@H](Cc1ccc(O)cc1)NC(=O)[C@H](C)NC(=O)[C@H](CCCCN)NC(=O)[C@H](CCCCN)NC(=O)[C@H](CCCCN)NC(=O)[C@H](Cc1c[nH]c2ccccc12)NC(=O)[C@H](CCCCN)NC(=O)[C@H](CCSC)NC(=O)[C@H](CCCNC(=N)N)NC(=O)[C@H](CCCNC(=N)N)NC(=O)[C@H](CC(N)=O)NC(=O)[C@H](CCC(N)=O)NC(=O)[C@H](Cc1ccccc1)NC(=O)[C@H](Cc1c[nH]c2ccccc12)NC(=O)[C@H](CC(C)C)NC(=O)[C@H](CCCCN)NC(=O)[C@@H](NC(=O)[C@H](CCC(N)=O)NC(=O)[C@@H](N)CCCNC(=N)N)[C@@H](C)CC)C(=O)NCC(=O)N[C@@H](CC(N)=O)C(=O)N[C@@H](CO)C(=O)N[C@@H](Cc1ccc(O)cc1)C(=O)N[C@@H](Cc1ccccc1)C(=O)N[C@@H](CCCCN)C(=O)O [Antp 15L-TPR] (H-RQIKLWFQNRRMKWKKKAYARIGNSYFK-OH; N-terminus and C-terminus assumed),–,–,–,–,effective but with an effect lower than the wild-type protein,73.75%,31.29%,–
